In this experiment the test system is ISO50 (Isolation number 50) colorectal cancer organoids. Put plainly: Drug titration assay on colorectal cancer organoids cultured in a fed-plate bioreactor (confocal imaging, morphometric analysis). It counts as cell-based. Conditions: 5 days. As for the experimental part:
ISO50 (Isolation number 50) colorectal cancer organoids were cultured in a fed-plate bioreactor for 3 days, recovered from the MATRIGEL™ and stored frozen at −80° C. They were subsequently revived and used to seed a 384-well plate at a density of 350 organoids per well in 12 μl MATRIGEL™. The organoids were fed with 25 μl growth medium containing 0-2.5 μM MK1775, a WEE1 inhibitor (8 replicates). After 5 days, the organoids were fixed and stained with Hoechst (blue fluorescent stain specific for DNA i.e. nuclei of eukaryotic cells) and phalloidin (pink stain for F-actin). […] The actin filaments are spread throughout the structures, but are more concentrated in the lumen, in the centre of the organoid. Representative organoids are pictured from selected wells at each concentration. The overall shape of organoids in an untreated culture, or at low concentrations of inhibitor, can vary from round and cyst-like to convoluted and branched. […] Morphometric analysis of over 1000 parameters of the organoids confirmed the observations of toxicity.

Entries after “also recorded” stand apart in the source; their conditions may differ.

Data on one molecule can be found in US20250368952A1, “Methods for Culturing Organoids” (Cellesce Limited, priority 2016, published 2025).

Consider `C=CCn1c(=O)c2cnc(Nc3ccc(N4CCN(C)CC4)cc3)nc2n1-c1cccc(C(C)(C)O)n1` [MK1775], for which the “Organoid morphology (confocal imaging, Hoechst and phalloidin staining)” value (0-2.5 μM in growth medium, 384-well plate, 350 organoids per well, 8 replicates, FIG. 3A) is “cells are shed from the outer layer of the organoid, leading to a loss in complexity and a decrease in the overall size; also recorded: cells are shed from the outer layer of the organoid, leading to a loss of complexity and a decrease in the overall size”. For the same molecule, under “0-2.5 μM, FIG. 3B”, the “Apoptotic nuclei (morphometric analysis)” value is listed as “increase with drug concentration”, the “Nuclei roundness (due to swelling before apoptosis; morphometric analysis)” value is on record as “increase with drug concentration” and the “Organoid size (morphometric analysis)” value was “decreases with increasing concentrations of inhibitor”.
